From patent US5397781A, “Pyrimidine derivatives” (Mochida Pharmaceutical Company, Limited, priority 1992, dated 1995) come the findings set out here.

Broadly, the IC50 is the midpoint of a concentration-inhibition curve.

The target in the test is T1, ACAT (Rattus norvegicus, UniProt Q7TQM4).
T1 construct: Liver microsomes as an enzyme sample of ACAT were prepared from overnight-fasted male rats; from tissue; host or cells: liver of overnight-fasted male rats, 6 weeks old; microsomes
T1 sequence (Q7TQM4 1-524): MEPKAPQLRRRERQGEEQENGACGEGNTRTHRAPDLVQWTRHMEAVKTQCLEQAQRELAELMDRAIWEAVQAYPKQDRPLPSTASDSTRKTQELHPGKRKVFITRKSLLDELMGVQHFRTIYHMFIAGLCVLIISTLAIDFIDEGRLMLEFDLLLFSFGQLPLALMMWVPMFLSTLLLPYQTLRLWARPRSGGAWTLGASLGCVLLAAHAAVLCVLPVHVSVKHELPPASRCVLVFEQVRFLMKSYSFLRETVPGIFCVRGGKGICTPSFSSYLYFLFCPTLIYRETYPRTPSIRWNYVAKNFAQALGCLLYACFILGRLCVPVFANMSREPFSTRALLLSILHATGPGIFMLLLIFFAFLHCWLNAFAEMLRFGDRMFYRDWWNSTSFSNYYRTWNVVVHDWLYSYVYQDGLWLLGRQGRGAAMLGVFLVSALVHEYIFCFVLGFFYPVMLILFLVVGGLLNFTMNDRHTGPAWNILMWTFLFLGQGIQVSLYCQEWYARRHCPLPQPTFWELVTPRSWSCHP
In words: Inhibitory effect on microsomal ACAT activity in rat liver. The test is classed as biochemical. To be noted: rat liver microsomes; read-out: IC50 (50% inhibition of cholesterol esterification). On the technique in general: Liver microsomes are a subcellular fraction often used to study metabolism.
On to `CCCCN(CCCC)c1nc(C)nc(S)c1NC(=O)CCCN(CCC)c1ccccc1` [Example 146, N-[4-(N,N-dibutylamino)-6-mercapto2-methylpyrimidin-5-yl]-4-(N-phenyl-N-propylamino)butanamide], for which the IC50 turned out to be 110 nM. With `CCCN(CCCC(=O)Nc1c(S)nc(C)nc1N(CC)CC)c1ccccc1` [Example 145, N-[4-(N,N-diethylamino)-6-mercapto-2-methylpyrimidin-5-yl]-4-(N-phenyl-N-propylamino)butanamide], the IC50 was found to be 80 nM.

For the molecule `CCCN(CCCC(=O)Nc1c(OCc2ccccc2)nc(C)nc1C(C)C)c1ccccc1` [Example 263, N-(4-benzyloxy-6-isopropyl-2-methylpyrimidin-5-yl)-4-(N-phenyl-N-propylamino)butanamide], the IC50 came to 100 nM. With `CCCSc1nc(C)nc(N(CCC)c2ccccc2)c1NC(=O)CCCN(CCC)c1ccccc1` [Example 256, N-[2-methyl-4-(N-phenyl-N-propylamino)-6-propylthiopyrimidin-5-yl]-4-(N-phenyl-N-propylamino)butanamide], the IC50 turned out to be 100 nM.

On to `CCCCCCN(CCCC(=O)Nc1c(SC)nc(SC)nc1N(CC)CC)c1ccccc1` [Example 234, N-[4-(N,N-diethylamino)-2,6-bis(methylthio)pyrimidin-5-yl]-4-(N-hexyl-N-phenylamino)butanamide], for which the half-maximal inhibitory concentration (IC50) came to 25 nM. To `CCCN(CCCC(=O)Nc1c(C(C)C)nc(C)nc1N(CC)CC)c1ccccc1` [Example 266, N-[4-(N,N-diethylamino)-6-isopropyl-2-methylpyrimidin-5-yl]-4-(N-phenyl-N-propylamino)butanamide] belongs 170 nM; to `CCCN(CCCC(=O)Nc1c(SC)nc(C)nc1C(C)C)c1ccccc1` [Example 268, N-(4-isopropyl-2-methyl-6-methylthiopyrimidin-5-yl)-4-(N-phenyl-N-propylamino)butanamide], 56 nM; to `CCCCCCN(CCCC(=O)Nc1c(S)nc(C)nc1N(CCC)CCC)c1ccccc1` [Example 156, N-[4-(N,N-dipropylamino)-6-mercapto-2-methylpyrimidin-5-yl]-4-(N-hexyl-N-phenylamino)butanamide], 38 nM. To `CCCCCCCCCCN(CCCC(=O)Nc1c(SC)nc(C)nc1N(CC)CC)c1ccccc1` [Example 236, 4-(N-decyl-N-phenylamino)-N-[4-(N,N-diethylamino)-2-methyl-6-methylthiopyrimidin-5-yl]butanamide] belongs 32 nM; to `CCCN(CCCCCC(=O)Nc1c(S)nc(C)nc1N(CCC)c1ccccc1)c1ccccc1` [Example 205, N-[4-mercapto-2-methyl-6-(N-phenyl-N-propylamino)pyrimidin-5-yl]-6-(N-phenyl-N-propylamino)hexanamide], 280 nM; to `CCCCCCN(CCCC(=O)Nc1c(OC)nc(SC)nc1N(CC)CC)c1ccccc1` [Example 168, N-[4-(N,N-diethylamino)-6-methoxy-2-methylthiopyrimidin-5-yl]-4-(N-hexyl-N-phenylamino)butanamide], 87 nM. The result for `CCCN(CCCCC(=O)Nc1c(S)nc(C)nc1N(CCC)c1ccccc1)c1ccccc1` [Example 185, N-[4-mercapto-2-methyl-6-(N-phenyl-N-propylamino)pyrimidin-5-yl]-5-(N-phenyl-N-propylamino)pentanamide] reads 79 nM.

For the molecule `CCCCN(CCCC)c1ncnc(SC)c1NC(=O)CCCCN(CCC)c1ccccc1` [Example 250, N-[4-(N,N-dibutylamino)-6-methylthiopyrimidin-5-yl]-5-(N-phenyl-N-propylamino)pentanamide], the IC50 worked out at 9.6 nM. Consider `CCCCCCN(CCCC(=O)Nc1c(OC)nc(C)nc1N(CC)CC)c1ccccc1` [Example 166, N-[4-(N,N-diethylamino)-6-methoxy-2-methylpyrimidin-5-yl]-4-(N-hexyl-N-phenylamino)butanamide], for which the IC50 is 81 nM. For the molecule `CCCN(CCCC(=O)Nc1c(SC)nc(C)nc1N(CCC)c1ccccc1)c1ccccc1` [Example 218, N-[2-methyl-4-methylthio-6-(N-phenyl-N-propylamino)pyrimidin-5-yl]-4-(N-phenyl-N-propylamino)butanamide], the IC50 was 430 nM. Consider `CCCN(CCCCC(=O)Nc1c(SC)nc(C)nc1N(CC)Cc1ccccc1)c1ccccc1` [Example 248, N-[4-(N-benzyl-N-ethylamino)-2-methyl-6-methylthiopyrimidin-5-yl]-5-(N-phenyl-N-propylamino)pentanamide], for which the IC50 is 32 nM. For `CCCCCCN(CCCC(=O)Nc1c(SC)nc(C)nc1N(CC)CC)c1ccc(Br)cc1` [Example 272, 4-[N-(4-bromophenyl)-N-hexylamino]-N-[4-(N,N-diethylamino)-2-methyl-6-methylthiopyrimidin-5yl]butanamide], the IC50 came out at 37 nM. Regarding `CCCCCCN(CCCC(=O)Nc1c(SC)nc(C)nc1N(CC)CC)c1ccc(OC)cc1` [Example 239, N-[4-(N,N-diethylamino)-2-methyl-6-methylthiopyrimidin-5-yl]-4-[N-hexyl-N-(4-methoxyphenyl)amino]butanamide], the IC50 amounted to 120 nM.

`CCCCCCCN(CCCC(=O)Nc1c(SC)nc(C)nc1N(CC)CC)Cc1ccccc1` [Example 243, 4-(N-benzyl-N-heptylamino)-N-[4-(N,N-diethylamino)-2-methyl-6-methylthiopyrimidin-5-yl]butanamide]: the IC50 stood at 95 nM. In the case of `CCCCN(CCCC)c1ncnc(OCC)c1NC(=O)CCCCN(CCC)c1ccccc1` [Example 197, N-[4-(N,N-dibutylamino)-6-ethoxypyrimidin-5-yl]-5-(N-phenyl-N-propylamino)pentanamide], the IC50 was 8.8 nM. Regarding `CCCCCCN(CCCCC(=O)Nc1c(SC)nc(C)nc1N(CC)CC)c1ccccc1` [Example 252, N-[4-(N,N-diethylamino)-2-methyl-6-methylthiopyrimidin-5-yl]-5-(N-hexyl-N-phenylamino)pentanamide], the IC50 turned out to be 33 nM. Take `CCN(CC)c1nc(C)nc(SC)c1NC(=O)CCCN(c1ccccc1)C1CCCCCC1` [Example 235, 4-(N-cycloheptyl-N-phenylamino)-N-[4-(N,N-diethylamino)-2-methyl-6-methylthiopyrimidin-5-yl]butanamide]: the half-maximal inhibitory concentration (IC50) was 26 nM. The result for `CCCCCCN(CCCC(=O)Nc1c(SC)nc(C)nc1N(CCC)CCC)c1ccccc1` [Example 226, N-[4-(N,N-dipropylamino)-2-methyl-6-methylthiopyrimidin-5-yl]-4-(N-hexyl-N-phenylamino)butanamide] reads 16 nM; that for `CCCN(CCCC(=O)Nc1c(SCc2ccccc2)nc(C)nc1N(CC)CC)c1ccccc1` [Example 259, N-[4-benzylthio-6-(N,N-dietylamino)-2-methylpyrimidin-5-yl]-4-(N-phenyl-N-propylamino)butanamide], 76 nM; that for `CCCCCCCN(CCCC(=O)Nc1c(S)nc(C)nc1N(CC)CC)Cc1ccccc1` [Example 182, 4-(N-benzyl-N-heptylamino)-N-[4-(N,N-diethylamino)-6-mercapto-2-methylpyrimidin-5-yl]butanamide], 220 nM.

Consider `CCCN(CCCCC(=O)Nc1c(SC)nc(C)nc1N(CCC)CCC)c1ccccc1` [Example 246, N-[4-(N,N-dipropylamino)-2-methyl-6-methylthiopyrimidin-5-yl]-5-(N-phenyl-N-propylamino)pentanamide], for which the IC50 turned out to be 14 nM.
